According to patent US20260327204A1, “DEGRADERS OF CYCLIN-DEPENDENT KINASE 12/13, COMPOSITIONS, AND USES THEREOF” (ZHEJIANG UNIVERSITY, priority 2023, published 2026):
Where two headings read alike, the source gives them in different places.

Key:
Assay type in all cases: cell-based
CDK12 [1] = target: T1, CDK12 (Homo sapiens, UniProt Q9NYV4); test: Reversal of CDK12 degradation by proteasome inhibitor MG132, Western blot; set-up: endogenous in cells; conditions: MDA-MB-231, 24 h treatment, MG132 added 12 h before sample collection
T1 sequence (Q9NYV4 whole entry): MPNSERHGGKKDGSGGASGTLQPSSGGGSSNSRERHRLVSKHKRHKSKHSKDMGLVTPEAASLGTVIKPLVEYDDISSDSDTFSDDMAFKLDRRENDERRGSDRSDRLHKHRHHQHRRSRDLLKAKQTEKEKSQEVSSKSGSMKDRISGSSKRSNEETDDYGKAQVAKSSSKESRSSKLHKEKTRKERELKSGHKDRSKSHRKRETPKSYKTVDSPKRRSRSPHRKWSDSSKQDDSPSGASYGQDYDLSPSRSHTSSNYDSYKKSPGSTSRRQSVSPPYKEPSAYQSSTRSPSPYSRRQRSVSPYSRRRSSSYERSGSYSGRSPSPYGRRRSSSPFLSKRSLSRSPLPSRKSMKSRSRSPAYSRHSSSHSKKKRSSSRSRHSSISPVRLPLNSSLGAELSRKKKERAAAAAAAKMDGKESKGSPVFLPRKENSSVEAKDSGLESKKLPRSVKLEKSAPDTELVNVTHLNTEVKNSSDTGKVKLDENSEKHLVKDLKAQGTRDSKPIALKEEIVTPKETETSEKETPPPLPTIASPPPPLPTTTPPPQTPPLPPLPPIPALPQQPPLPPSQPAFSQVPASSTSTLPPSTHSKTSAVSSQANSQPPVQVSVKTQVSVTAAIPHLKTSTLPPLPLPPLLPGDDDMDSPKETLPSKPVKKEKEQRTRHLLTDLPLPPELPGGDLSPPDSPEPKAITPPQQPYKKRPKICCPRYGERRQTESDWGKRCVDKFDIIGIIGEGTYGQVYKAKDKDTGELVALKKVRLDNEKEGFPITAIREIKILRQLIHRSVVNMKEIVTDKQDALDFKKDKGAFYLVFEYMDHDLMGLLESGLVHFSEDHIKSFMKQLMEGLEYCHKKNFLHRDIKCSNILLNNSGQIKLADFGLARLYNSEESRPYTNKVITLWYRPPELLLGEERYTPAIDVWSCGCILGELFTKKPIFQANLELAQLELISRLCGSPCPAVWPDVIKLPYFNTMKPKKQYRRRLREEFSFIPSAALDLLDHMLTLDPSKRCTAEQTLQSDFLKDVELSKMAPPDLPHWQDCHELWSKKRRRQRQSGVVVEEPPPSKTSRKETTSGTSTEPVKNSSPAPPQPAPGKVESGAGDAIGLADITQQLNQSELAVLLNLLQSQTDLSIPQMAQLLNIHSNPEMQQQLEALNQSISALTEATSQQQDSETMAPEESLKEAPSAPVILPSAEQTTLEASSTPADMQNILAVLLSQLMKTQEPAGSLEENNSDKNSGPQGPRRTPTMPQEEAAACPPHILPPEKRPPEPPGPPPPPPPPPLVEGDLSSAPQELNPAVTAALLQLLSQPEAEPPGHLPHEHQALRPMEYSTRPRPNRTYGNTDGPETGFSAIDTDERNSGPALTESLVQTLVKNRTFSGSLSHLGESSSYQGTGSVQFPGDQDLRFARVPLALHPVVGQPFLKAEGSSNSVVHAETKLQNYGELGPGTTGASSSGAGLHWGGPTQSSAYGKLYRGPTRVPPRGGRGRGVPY
T1 sequence (O75909 whole entry partner): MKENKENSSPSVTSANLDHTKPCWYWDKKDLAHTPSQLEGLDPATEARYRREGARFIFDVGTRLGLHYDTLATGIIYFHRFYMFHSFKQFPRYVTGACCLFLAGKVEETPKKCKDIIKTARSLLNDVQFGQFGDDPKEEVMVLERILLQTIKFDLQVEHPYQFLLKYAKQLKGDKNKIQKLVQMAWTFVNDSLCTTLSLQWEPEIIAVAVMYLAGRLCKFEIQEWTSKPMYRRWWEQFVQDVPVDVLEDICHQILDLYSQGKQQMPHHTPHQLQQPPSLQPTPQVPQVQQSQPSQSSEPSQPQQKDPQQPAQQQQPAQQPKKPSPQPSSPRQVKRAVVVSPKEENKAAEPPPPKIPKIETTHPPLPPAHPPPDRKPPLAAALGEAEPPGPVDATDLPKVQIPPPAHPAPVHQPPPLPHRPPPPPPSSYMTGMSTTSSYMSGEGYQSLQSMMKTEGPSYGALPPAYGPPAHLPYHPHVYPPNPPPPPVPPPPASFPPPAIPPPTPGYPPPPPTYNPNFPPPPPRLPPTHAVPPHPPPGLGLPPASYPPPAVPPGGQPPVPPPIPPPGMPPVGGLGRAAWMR
Procedure: (§1) • Cell lines: HCT-116, Jurkat, or MDA-MB-231 • Culture medium: DMEM/RIPM-1640+10% Hyclone serum • Compound dissolution method: The compounds (small molecule conjugates as shown in Formulae 101-147, MG132) were dissolved in DMSO to prepare a 50 mM stock solution and then diluted to the corresponding concentrations.
(§2) (3) Compound treatment: The 50 mM compound stock solution was diluted with cell culture medium to a final concentration of 0.01 μM-3 μM. Cells were incubated in a 37 °C incubator with 5% CO2 for 3 h-48 h. The DMSO group served as the negative control.

CDK12 [2] = target: T1, CDK12; test: Western blot degradation of CDK12 (Example 3); set-up: degradation of CDK12/13 protein in leukemia cells KASUMI-1, MV4-11, and Jurkat; endogenous in cells
CDK13 [3] = target: T2, CDK13 (Homo sapiens, UniProt Q14004); test: Reversal of CDK13 degradation by proteasome inhibitor MG132, Western blot; set-up: endogenous in cells; conditions: MDA-MB-231, 24 h treatment, MG132 added 12 h before sample collection
T2 sequence (Q14004 whole entry): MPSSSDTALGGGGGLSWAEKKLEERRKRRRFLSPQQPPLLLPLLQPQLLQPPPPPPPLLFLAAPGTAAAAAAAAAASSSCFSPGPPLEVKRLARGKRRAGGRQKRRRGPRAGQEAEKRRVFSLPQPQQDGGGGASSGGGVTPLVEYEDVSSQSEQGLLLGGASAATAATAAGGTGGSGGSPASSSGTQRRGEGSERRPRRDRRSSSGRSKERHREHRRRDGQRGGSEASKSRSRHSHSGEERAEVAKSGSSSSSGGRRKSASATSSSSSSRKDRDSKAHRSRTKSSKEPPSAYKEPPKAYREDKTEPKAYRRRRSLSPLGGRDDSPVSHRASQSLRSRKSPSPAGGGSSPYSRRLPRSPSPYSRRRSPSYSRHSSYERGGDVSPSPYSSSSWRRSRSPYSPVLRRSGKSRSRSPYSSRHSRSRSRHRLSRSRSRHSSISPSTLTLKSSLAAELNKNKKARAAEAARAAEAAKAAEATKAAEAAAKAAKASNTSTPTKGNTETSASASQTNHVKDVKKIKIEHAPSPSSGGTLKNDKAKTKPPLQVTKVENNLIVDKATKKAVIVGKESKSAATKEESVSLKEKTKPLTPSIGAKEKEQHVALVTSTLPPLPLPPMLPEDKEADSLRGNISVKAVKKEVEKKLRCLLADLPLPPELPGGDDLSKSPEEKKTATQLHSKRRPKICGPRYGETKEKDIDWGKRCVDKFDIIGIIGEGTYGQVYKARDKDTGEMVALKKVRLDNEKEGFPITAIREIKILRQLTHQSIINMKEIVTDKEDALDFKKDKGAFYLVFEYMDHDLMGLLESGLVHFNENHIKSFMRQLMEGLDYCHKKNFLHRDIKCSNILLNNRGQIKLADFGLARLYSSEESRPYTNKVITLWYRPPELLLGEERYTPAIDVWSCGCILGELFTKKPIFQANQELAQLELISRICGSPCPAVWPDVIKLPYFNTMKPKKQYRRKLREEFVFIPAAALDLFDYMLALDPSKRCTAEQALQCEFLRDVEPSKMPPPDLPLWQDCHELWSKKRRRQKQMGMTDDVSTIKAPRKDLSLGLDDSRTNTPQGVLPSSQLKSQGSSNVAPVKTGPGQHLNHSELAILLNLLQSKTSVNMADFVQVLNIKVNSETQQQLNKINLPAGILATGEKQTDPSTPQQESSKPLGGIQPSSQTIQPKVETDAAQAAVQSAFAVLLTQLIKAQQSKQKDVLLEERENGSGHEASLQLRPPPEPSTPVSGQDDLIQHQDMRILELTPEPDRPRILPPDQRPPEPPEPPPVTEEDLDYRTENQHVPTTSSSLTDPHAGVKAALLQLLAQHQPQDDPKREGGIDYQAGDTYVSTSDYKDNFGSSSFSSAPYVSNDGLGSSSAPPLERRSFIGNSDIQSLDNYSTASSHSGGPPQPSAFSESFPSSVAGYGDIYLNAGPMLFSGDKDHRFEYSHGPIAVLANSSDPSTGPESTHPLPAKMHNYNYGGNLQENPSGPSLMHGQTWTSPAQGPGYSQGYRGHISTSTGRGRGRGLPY
T2 sequence (O75909 whole entry partner): as the sequence (O75909 whole entry partner) above
Procedure: as §1, §2

CDK13 [4] = target: T2, CDK13; test: Western blot degradation of CDK13 (Example 3); set-up: degradation of CDK12/13 protein in leukemia cells KASUMI-1, MV4-11, and Jurkat; endogenous in cells
CCNK = test: Reversal of CCNK degradation by proteasome inhibitor MG132, Western blot; conditions: MDA-MB-231, 24 h treatment, MG132 added 12 h before sample collection
Procedure: as §1, §2
In the figures, CDK12, CDK13, and CCNK are the target proteins under study, and β-Actin and GAPDH are the internal reference proteins. Internal reference proteins are used to indicate the total protein amount in each experimental group for quantitative analysis.

[5] = DC50 classes, cell line not given, read-out: CDK12 degradation Activity
[6] = DC50 classes, cell line not given, read-out: CDK13 degradation Activity

DC50 (CDK12 [2]; [5]) [nM]	DC50 (CDK13 [4]; [6]) [nM]	Structure (SMILES)	also measured
< 100	< 100	CC(=O)N(c1ccc(-c2ccc(N3CCN(c4ccc5c(c4)C(=O)N(C4CCC(=O)NC4=O)C5=O)CC3)nc2)cc1)[C@H]1CC[C@H](Nc2ncc3ccccc3n2)CC1 (stereo partly drawn) [Formula 103, N-(4-(6-(4-(2-(2,6-dioxopiperidin-3-yl)-1,3-dioxoisoindolin-5-yl)piperazin-1-yl)pyridin-3-yl)phenyl)-N-((1R,4R)-4-(quinazolin-2-ylamino)cyclohexyl)acetamide]	reversal of CDK12 degradation by MG132 (CDK12 [1]): can reverse the degradation of CDK12/13 and CCNK; DC50 (CDK12 [2]; HCT116, colorectal cancer cells, read-out: CDK12 DC50): 22 nM; DC50 (CDK12 [2]; KASUMI-1, leukemia cells, read-out: CDK12 DC50): 15 nM; DC50 (CDK12 [2]; MDA-MB-231, breast cancer cells, read-out: CDK12 DC50): 16 nM; reversal of CDK13 degradation by MG132 (CDK13 [3]): can reverse the degradation of CDK12/13 and CCNK; DC50 (CDK13 [4]; HCT116, colorectal cancer cells, read-out: CDK13 DC50): 19 nM; DC50 (CDK13 [4]; KASUMI-1, leukemia cells, read-out: CDK13 DC50): 18 nM; DC50 (CDK13 [4]; MDA-MB-231, breast cancer cells, read-out: CDK13 DC50): 30 nM; reversal of CCNK degradation by MG132 (CCNK): can reverse the degradation of CDK12/13 and CCNK
	3000 to 10000	CC(=O)N(c1ccc(-c2ccc(N3CCN(C(=O)N[C@H](C(=O)N4C[C@H](O)CC4C(=O)N[C@@H](C)c4ccc(-c5scnc5C)cc4)C(C)(C)C)CC3)nc2)cc1)[C@H]1CC[C@H](Nc2ncc3ccccc3n2)CC1 (some centres unmarked) [Formula 145]	CDK12 degradation Activity (CDK12 [2]; DC50 classes, cell line not given): −
3000 to 10000	3000 to 10000	CC(=O)N(c1ccc(-c2cnc(N3CCN(C(=O)N[C@H](C(=O)N4C[C@H](O)C[C@H]4C(=O)N[C@@H](C)c4ccc(-c5scnc5C)cc4)C(C)(C)C)CC3)nc2)cc1)[C@H]1CC[C@H](Nc2ncc3ccccc3n2)CC1 [Formula 146, N—((S)-1-((2S,4R)-4-hydroxy-2-(((S)-1-(4-(4-methylthiazol-5-yl)phenyl)ethyl)carbamoyl)pyrrolidin-1-yl)-3,3-dimethyl-1-oxobutan-2-yl)-4-(5-(4-(N-((1R,4R)-4-(quinazolin-2-ylamino)cyclohexyl)acetamido)phenyl)pyrimidin-2-yl)piperazine-1-carboxamide]	
< 100	< 100	CC(=O)N(c1ccc(-c2cnc(N3CCN(CC(=O)N[C@H](C(=O)N4C[C@H](O)C[C@H]4C(=O)N[C@@H](C)c4ccc(-c5scnc5C)cc4)C(C)(C)C)CC3)nc2)cc1)[C@H]1CC[C@H](Nc2ncc3ccccc3n2)CC1 [Formula 148, (2S,4R)-1-((S)-3,3-dimethyl-2-(2-(4-(5-(4-(N-((1R,4R)-4-(quinazolin-2-ylamino)cyclohexyl)acetamido)phenyl)pyrimidin-2-yl)piperazin-1-yl)acetamido)butanoyl)-4-hydroxy-N—((S)-1-(4-(4-methylthiazol-5-yl)phenyl)ethyl)pyrrolidine-2-carboxamide]	
500 to 1000	1000 to 3000	CC(=O)N(c1ccc(-c2ccc3c(c2)CCN(CC(=O)N[C@H](C(=O)N2C[C@H](O)C[C@H]2C(=O)N[C@@H](C)c2ccc(-c4scnc4C)cc2)C(C)(C)C)C3)cc1)[C@H]1CC[C@H](Nc2ncc3ccccc3n2)CC1 [Formula 149, (2S,4R)-1-((S)-3,3-dimethyl-2-(2-(6-(4-(N-((1R,4R)-4-(quinazolin-2-ylamino)cyclohexyl)acetamido)phenyl)-3,4-dihydroisoquinolin-2(1H)-yl)acetamido)butanoyl)-4-hydroxy-N—((S)-1-(4-(4-methylthiazol-5-yl)phenyl)ethyl)pyrrolidine-2-carboxamide]	
		CC(=O)N(c1ccc(-c2ccc(N3CCN(Cc4cnn([C@H](C(=O)N5C[C@H](O)C[C@H]5C(=O)N[C@@H](C)c5ccc(-c6scnc6C)cc5)C(C)C)c4)CC3)nc2)cc1)C1CCC(Nc2ncc3ccccc3n2)CC1 (stereo partly drawn) [Formula 151, (2S,4R)-4-hydroxy-1-((S)-3-methyl-2-(4-((4-(5-(4-(N-((1R,4R)-4-(quinazolin-2-ylamino)cyclohexyl)acetamido)phenyl)pyridin-2-yl)piperazin-1-yl)methyl)-1H-pyrazol-1-yl)butanoyl)-N—((S)-1-(4-(4-methylthiazol-5-yl)phenyl)ethyl)pyrrolidine-2-carboxamide]	DC50 (CDK12 [2]; read-out: CDK12 degradation Activity, DC50 classes, cell line not given): 500 to 1000 nM; DC50 (CDK13 [4]; read-out: CDK13 degradation Activity, DC50 classes, cell line not given): 100 to 500 nM
100 to 500	100 to 500	CC(=O)N(c1ccc(-c2ccc(N3CCN(c4cnn([C@H](C(=O)N5C[C@H](O)C[C@H]5C(=O)N[C@@H](C)c5ccc(-c6scnc6C)cc5)C(C)C)c4)CC3)nc2)cc1)[C@H]1CC[C@H](Nc2ncc3ccccc3n2)CC1 [Formula 152, (2S,4R)-4-hydroxy-1-((S)-3-methyl-2-(4-(4-(5-(4-(N-((1R,4R)-4-(quinazolin-2-ylamino)cyclohexyl)acetamido)phenyl)pyridin-2-yl)piperazin-1-yl)-1H-pyrazol-1-yl)butanoyl)-N—((S)-1-(4-(4-methylthiazol-5-yl)phenyl)ethyl)pyrrolidine-2-carboxamide]	
100 to 500	< 100	CC(=O)N(c1ccc(-c2cnc(N3CCN(Cc4cnn([C@H](C(=O)N5C[C@H](O)C[C@H]5C(=O)N[C@@H](C)c5ccc(-c6scnc6C)cc5)C(C)C)c4)CC3)nc2)cc1)[C@H]1CC[C@H](Nc2ncc3ccccc3n2)CC1 [Formula 153, (2S,4R)-4-hydroxy-1-((S)-3-methyl-2-(4-((4-(5-(4-(N-((1R,4R)-4-(quinazolin-2-ylamino)cyclohexyl)acetamido)phenyl)pyrimidin-2-yl)piperazin-1-yl)methyl)-1H-pyrazol-1-yl)butanoyl)-N—((S)-1-(4-(4-methylthiazol-5-yl)phenyl)ethyl)pyrrolidine-2-carboxamide]	
100 to 500	< 100	CC(=O)N(c1ccc(-c2cnc(N3CCN(c4cnn([C@H](C(=O)N5C[C@H](O)C[C@H]5C(=O)N[C@@H](C)c5ccc(-c6scnc6C)cc5)C(C)C)c4)CC3)nc2)cc1)[C@H]1CC[C@H](Nc2ncc3ccccc3n2)CC1 [Formula 154, (2S,4R)-4-hydroxy-1-((S)-3-methyl-2-(4-(4-(5-(4-(N-((1R,4R)-4-(quinazolin-2-ylamino)cyclohexyl)acetamido)phenyl)pyrimidin-2-yl)piperazin-1-yl)-1H-pyrazol-1-yl)butanoyl)-N—((S)-1-(4-(4-methylthiazol-5-yl)phenyl)ethyl)pyrrolidine-2-carboxamide]	

Structure (SMILES)	DC50 (CDK12 [2]; [5]) [nM]	DC50 (CDK13 [4]; [6]) [nM]	also measured
CC(=O)N(c1ccc(-c2cnc(N3CCN(c4ccc5c(c4)C(=O)N(C4CCC(=O)NC4=O)C5=O)CC3)nc2)cc1)[C@H]1CC[C@H](Nc2ncc3ccccc3n2)CC1 (some centres unmarked) [Formula 158]	< 100	< 100	
